Measured values reported in patent US20200069775A1, “BRAIN OSTEOCALCIN RECEPTOR AND COGNITIVE DISORDERS” (The Trustees of Columbia University in the City of New York, priority 2017, published 2020).

Legend:
[1] = system: mouse primary hindbrain neurons (MPHN); assay: Calcium flux in mouse primary hindbrain neurons; type: cell-based
Procedure: For calcium imaging, primary hindbrain neurons seeded on 12 mm coverslips were allowed the appropriate time to form structural networks. These cultures were washed with HBSS and loaded with 2.5 μM FURA-2, AM calcium indicator for 45 minutes at room temperature, according to the manufacturer's protocol. Cells were then washed to remove excess indicator and incubated for 30 minutes to allow internalized esters to become de-esterified. 30 ng/ml of osteocalcin was prepared with the control buffer of 1× HBBS supplemented with 10 mM HEPES buffer and 2 mM CaCl2. Using a Zeiss microscope with a perfusion system, coverslips were first perfused with control and osteocalcin. After each stimulation, cells were depolarized with 50 mM KCl to determine the percentage of live cells being imaged. All treatments were recorded using two-photon laser scanning microscopy by Prairie Technologies and analyzed by Z axis profile plotting using ImageJ.
To determine if osteocalcin acts directly on neurons to modulate neurotransmitter synthesis, several types of assays were performed. First, brainstem and midbrain explants from WT and Gprc6a^−/− mice were generated. […] Third, to further confirm that osteocalcin signals in neurons of the hindbrain, calcium flux in MPHN treated with undercarboxylated or carboxylated osteocalcin (FIG. 3F) was measured.

[2] = system: brainstem neurons (dorsal raphe 5-HT neurons, locus coeruleus, GABAergic interneurons); assay: Whole cell current clamp recording in brainstem slices; type: cell-based, mouse; details: whole cell current clamp
Procedure: Brain slice preparations and electrophysiological recordings were performed according to methods known in the art. Briefly, WT mice were anesthetized with ether and then decapitated. The brains were rapidly removed and immersed in an oxygenated bath solution at 40° C. containing (in mM): sucrose 220, KCl 2.5, CaCl2 1, MgC12 6, NaH2PO4 1.25, NaHCO3 26, and glucose 10 pH 7.3 with NaOH. Coronal slices (350 μm thick) containing dorsal raphe (DR) were cut on a vibratome and maintained in a holding chamber with artificial cerebrospinal fluid (ACSF) (bubbled with 5% CO2 and 95% O2) containing (in mM): NaCl 124, KCl 3, CaCl2 2, MgCl2 2, NaH2PO4 1.23, NaHCO3 26, glucose 10, pH 7.4 with NaOH, and were transferred to a recording chamber constantly perfused with bath solution (330 C) at 2 ml/min after at least a 1 hr recovery. Whole-cell current clamp was performed to observe action potentials in DR serotoninergic (5-HT) neurons with a Multiclamp 700A amplifier (Axon instrument, CA). Patch pipettes with a tip resistance of 4-6 MΩ were made of borosilicate glass (World Precision Instruments) with a Sutter pipette puller (P-97) and filled with a pipette solution containing (in mM): K-gluconate (or Cs-gluconate) 135, MgCl2 2, HEPES 10, EGTA 1.1, Mg-ATP 2, Na2-phosphocreatine 10, and Na2-GTP 0.3, pH 7.3 with KOH. After a giga-Ohm (GΩ) seal and whole-cell access were achieved, the series resistance (between 20 and 40 MΩ) was partially compensated by the amplifier. […] All data were sampled at 3-10 kHz and filtered at 1-3 kHz with an Apple Macintosh computer using Axograph 4.9 (Axon Instruments). Electrophysiological data were analyzed with Axograph 4.9 and plotted with Igor Pro software (WaveMetrics, Lake Oswego, Oreg.).

osteocalcin: Recombinant osteocalcin bacterially produced, cleaved from the GST subunit; completely undercarboxylated at all three sites; full-length mouse osteocalcin (YLGASVPSPDPLEPTREQCELNPACDELSDQYGLKTAYKRIYGITI)
calcium fluxes [1]: induced changes in calcium fluxes | action potential frequency in neurons of the locus coeruleus [2]: decreases it | action potential frequency of brainstem neurons [2]: activates the action potential frequency | action potential frequency of the GABAergic interneurons of the hindbrain [2]: inhibits the action potential frequency
